# Assays:
# [1] = tested on: U87-MG human glioma cells; test: MTT viability assay, U87-MG; type: cell-based; conditions: 24 h
# Protocol: (§1) Cell viability was assessed using MTT metabolism assay (U87 and BV2 cells) or MTS CellTiter 96® AQueous One Solution Cell Proliferation Assay (Promega) for the primary murine microglia cultures. Cells were cultured either in 96-well plates (U87 at density of 1×10^4) or 24-well plates (BV2 at density of 4×10^4 and primary microglia 8×10^4) with the indicated concentrations of the inhibitor or H2O (vehicle) for 24 h. MTT solution (Sigma Aldrich) was added to each well to a final concentration of 0.5 mg/mL. After 1 h of incubation at 37°C, water-insoluble dark blue formazan crystals were dissolved in DMSO. Optical densities (OD) were measured at 570 and 620 nm using a scanning multiwell spectrophotometer. The MTT assay was performed according to the manufacturer’s protocol. All measurements were carried out on three independent cell passages, in triplicates.
# [2] = tested on: primary murine microglia; test: Viability assay, primary microglia; type: cell-based, mouse; conditions: 24 h, concentrations up to 1000 µM
# Protocol: as §1
# [3] = tested on: tumor-infiltrating immune cells in GL261 gliomas; test: Immune cells in GL261 gliomas (immunohistochemistry, flow cytometry); type: in vivo, mouse
# Protocol: The animals were sacrificed on the day 21 after GL261 tdTomato^+luc^+ cell implantation and perfused with 4% paraformaldehyde in PBS. Brains were removed, post-fixed for 48 h in the same fixative solution and placed in 30% sucrose in PBS at 4°C until the tissue sunk to the bottom of the flask. Tissue was frozen in Tissue Freezing Medium (Jung; Nussloch, Germany) and cut in 12 µm coronal sections using a cryostat. The slides were dried at room temperature for 2 h after being transferred from the -80°C storage. Cryosections were blocked in PBS containing 10% donkey serum and 0.1% Triton X-100 for 2 h and incubated overnight at 4°C with rabbit anti-Iba-1 and goat anti-Arg1 or with rabbit anti-CD8 antibodies. Next, sections were washed in PBS and incubated with corresponding secondary antibodies for 2 h at room temperature. All antibodies were diluted in 0.1% Triton X-100/PBS solution containing 3% donkey serum. Nuclei were counterstained with DAPI (1 µg/mL). Images were obtained using the Olympus microscope (Fluoview, FV10i). For reagent specifications, catalogue numbers, and concentrations, see the Supplementary Table 1. To quantify the tumor size, sections were stained with toluidine blue, and images were acquired using a Leica DM4000B microscope (Leica Microsystems, Wetzlar, Germany). Tumor areas were measured using ImageJ software (NIH, Bethesda, MD, USA) on every sixth brain slice, and tumor volumes were calculated as previously described ([26]).
# On day 28 after GL261 tdTomato^+luc^+ cell implantation mice were perfused transcardially with cold phosphate-buffered saline (PBS) to clear away blood cells from the brain. […] Next, cells were collected, washed with PBS and counted using NucleoCounter (Chemometec, Denmark). […]
# All antibodies were titrated prior to staining to establish the amount yielding the best stain index. Data were acquired using a BD LSR Fortessa Analyzer cytometer and analyzed with FlowJo software (v. 10.5.3, FlowJo LLC, BD). Gates were set based on FMO (fluorescence minus one) controls and back-gating analysis. […]
# [4] = tested on: plasma cytokines; test: Plasma cytokine analysis (Milliplex/MAGPIX); type: in vivo, mouse; conditions: blood collected 2 h after last administration of OAT-1746
# Protocol: Measurement of pro- and anti-inflammatory cytokines was performed in blood from control and treated animals. Blood was quickly collected to EDTA containing tubes before perfusion and centrifuged (10,000 × g) for 10 min at room temperature. The plasma was collected and stored at -80°C. The levels of cytokines were measured using the Milliplex Kit (Merk-Millipore, Germany) according to the protocol. Cytokine levels were determined using the MAGPIX Multiplexing Instrument (Luminex, TX, USA) with XPonent software and analyzed with Milliplex Analyst 5.1 software. Results were expressed as pg/mL for each cytokine.
# [5] = tested on: human and murine T cells; parameters: method as in PMID 31278254; conditions: cited from earlier work
smiles,measurement,setting,value
CN(C)C[C@@H]1CC[C@@H](CCB(O)O)C[C@]1(N)C(=O)O [OAT-1746],reduction of the cell viability in U87-MG glioma cells,[1]; 1 mM,20%
same,viability of U87-MG cells (toxicity),[1]; concentrations up to 1000 µM,a decrease in the viability of U87-MG cells was observed at the highest concentration
same,viability of primary murine microglia (toxicity),[2],not toxic
same,percentage of microglia (CD11b+CD45low) and blood-derived macrophages (CD11b+CD45high),"[3]; flow cytometry, day 28",did not change
same,accumulation of CD8+ cells,"[3]; immunohistochemistry, day 21",did not affect
same,accumulation of Iba1+ and Arg1+ cells in gliomas,"[3]; immunohistochemistry, day 21",did not change
same,plasma levels of CCL2,[4],higher levels
same,plasma levels of CCL5,[4],reduced
same,ARG1-inhibited proliferation of human and murine T cells,[5],reversed
